Experiment [1] concerns the target T1, human Endothelial Differentiation Gene 1 (EDG1), S1P1 receptor (Homo sapiens, UniProt P21453).
T1 construct: TEV protease site; Gal4-VP16 transcription factor; expressed in transfected cells; host or cells: EDG1-bla/U2OS (Tango GPCR-bla U2OS parental cell line)
The experiment is described as follows: S1P1 Assay (Tango EDG1-bla/U2OS beta-lactamase reporter, agonist dose response). Particulars: EDG1-bla/U2OS cells, blue/green emission ratio, 10 point dose response, free base or salt form; read-out: pEC50 (S1P1 assay) (converted). Format: cell-based. The protocol:
Recombinant EDG1-bla/U2OS cells (contain the human Endothelial Differentiation Gene 1 (EDG1) linked to a TEV protease site and a Gal4-VP16 transcription factor stably integrated into the Tango GPCR-bla U2OS parental cell line) were harvested from growth medium and passaged into assay medium (Invitrogen Freestyle Expression Medium). The cells were starved for 24 hours at 37° C., 5% CO2, harvested and resuspended in assay medium at a density of ˜200,000 cells/ml. All test compounds were dissolved in DMSO at a concentration of 10 mM and were prepared in 100% DMSO to provide 10 point dose response curves. Test compounds in the free base or in a salt form were prepared by Velocity11 Bravo automation (Agilent) were added to wells in columns 2-11 and 13-22; DMSO was added to wells in columns 12 and 23 as unstimulated controls and assay medium was added to wells in columns 1 and 24 as cell-free controls. An S1P1 agonist was added to wells in row 2, columns 2-11 as stimulated controls and test compounds were added to wells in row 2, columns 13-22 and rows 3-15, columns 2-11/13-22 (row 1 and 16 were empty and not used). Compounds in solution were added to the assay plate (Greiner 781090) using an Echo (Labcyte) dose-response program (50 nl/well). The unstimulated and cell-free controls were loaded with 50 nl/well pure DMSO to ensure that the DMSO concentration was constant across the plate for all assays. 50 μl of the cell suspension was added to each well in columns 2-23 of the plate (˜10,000 cells per well). 50 μl of assay medium was added to each well in the cell-free controls (columns 1 and 24). The cells were incubated overnight at 37° C./5% CO2.
(§1) 10 μl of 6× substrate mixture (LiveBLAzer™-FRET B/G substrate (CCF4-AM) Cat # K1096 from Invitrogen, Inc.) was added to each well using Bravo automation and the plates incubated at room temperature for 2 h in the dark. The plate was finally read on EnVision using one excitation channel (409 nm) and two emission channels (460 nm and 530 nm).
(§2) The blue/green emission ratio (460 nm/530 nm) was calculated for each well, by dividing the background-subtracted Blue emission values by the background-subtracted Green emission values. The dose response curve is based on sigmoidal dose-response model. All ratio data was normalized based upon the maximum emission ratio of positive control and minimum emission ratio of negative control (DMSO) on each plate. The intrinsic activity (IA) of each compound is defined as relative response normalised to a reference compound, whose maximum response is defined as 100% after curve fitting.

For experiment [2], the target named is T2, human Endothelial Differentiation G-protein Coupled Receptor 3 (EDG3), S1P3 receptor (Homo sapiens, UniProt Q99500).
T2 construct: expressed in transfected cells; host or cells: GeneBLAzer EDG3-Ga15-NFAT-bla HEK 293T
As to the kind of experiment: S1P3 Assay (GeneBLAzer EDG3-Ga15-NFAT-bla HEK 293T beta-lactamase reporter, agonist dose response). Format: cell-based. The note with it: EDG3-Ga15-NFAT-bla HEK 293T cells, blue/green emission ratio, 10 point dose response, free base or salt form; read-out: pEC50 (S1P3 assay) (converted). The protocol:
GeneBLAzer EDG3-Ga15-NFAT-bla HEK 293T cells (contain the human Endothelial Differentiation G-protein Coupled Receptor 3 (EDG3) and a beta-lactamase reporter gene under control of a NFAT response element and a promiscuous G Protein, Ga15, stably integrated into the GeneBLAzer Ga15-NFAT-bla HEK 293T cell line) were harvested from growth medium and suspended in assay medium (90% DMEM, 10% Charcoal-stripped FBS, 0.1 mM NEAA, 25 mM HEPES (pH 7.3), 100 U/ml penicillin, 100 μg/ml streptomycin) at a density of […]. All test compounds were dissolved in DMSO at a concentration of 10 mM and were prepared in 100% DMSO to provide 10 point dose response curves. Test compounds in the free base or in a salt form were prepared by Velocity 11 Bravo automation (Agilent) were added to wells in columns 2-11 and 13-22; DMSO was added to wells in columns 12 and 23 as unstimulated controls and assay medium was added to wells in columns 1 and 24 as cell-free controls. An S1P3 agonist was added to wells in row 2, columns 2-11 as stimulated controls and test compounds were added to wells in row 2, columns 13-22 and rows 3-15, columns 2-11/13-22 (row 1 and 16 were empty and not used). Compounds in solution were added to the assay plate (Greiner 781090) using an Echo (Labcyte) dose-response program (50 nl/well). The unstimulated and cell-free controls were loaded with 50 nl/well pure DMSO to ensure that the DMSO concentration was constant across the plate for all assays.
50 μl of the cell suspension was added to each well in columns 2-23 of the plate (˜10,000 cells per well). 50 μl of assay medium was added to each well in the cell-free controls (columns 1 and 24). The cells were incubated overnight at 37° C./5% CO2.
as §1, §2

Structures can show the parent of a compound that is named as a salt. A value given as a limit tells only on which side of the number the result lay.

T2 sequence (Q99500 whole entry): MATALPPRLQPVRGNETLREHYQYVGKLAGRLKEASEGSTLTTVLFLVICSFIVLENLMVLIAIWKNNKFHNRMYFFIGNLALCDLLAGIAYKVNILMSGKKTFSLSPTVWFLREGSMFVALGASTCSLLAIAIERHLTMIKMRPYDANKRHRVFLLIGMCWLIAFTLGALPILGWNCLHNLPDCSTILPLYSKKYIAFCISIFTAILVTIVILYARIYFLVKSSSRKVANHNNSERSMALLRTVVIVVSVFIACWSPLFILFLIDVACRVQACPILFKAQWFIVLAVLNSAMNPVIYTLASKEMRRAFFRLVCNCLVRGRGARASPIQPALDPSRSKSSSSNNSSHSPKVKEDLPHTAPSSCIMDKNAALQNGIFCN
T1 sequence (P21453 whole entry, the tested form may be a part): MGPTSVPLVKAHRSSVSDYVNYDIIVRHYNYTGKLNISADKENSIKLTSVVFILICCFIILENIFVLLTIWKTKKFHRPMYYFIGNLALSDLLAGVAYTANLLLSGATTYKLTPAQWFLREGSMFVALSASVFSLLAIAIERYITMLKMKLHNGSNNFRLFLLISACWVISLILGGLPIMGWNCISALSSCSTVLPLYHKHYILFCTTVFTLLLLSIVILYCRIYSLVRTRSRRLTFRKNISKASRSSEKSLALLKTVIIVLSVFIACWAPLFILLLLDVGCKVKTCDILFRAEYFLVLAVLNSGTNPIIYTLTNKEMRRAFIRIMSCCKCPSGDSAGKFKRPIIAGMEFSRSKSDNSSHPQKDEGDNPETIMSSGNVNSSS

Consider `CCc1c(CN2CCC(C(=O)O)CC2)cccc1-c1cnc(-c2ccc(OC(C)C)c(C(F)(F)F)c2)s1` [Example 32, 1-[(2-ethyl-3-{2-[4-[(1-methylethyl)oxy]-3-(trifluoromethyl)phenyl]-1,3-thiazol-5-yl}phenyl)methyl]-4-piperidinecarboxylic acid], for which the values for the EC50 in experiment [1] and in experiment [2] were less than 1 nM and greater than 3160 nM, respectively.
In the same order, the values of `COc1c(CCN2CC(C(=O)O)C2)cc(F)cc1-c1cnc(-c2ccc(OC(C)C)c(Cl)c2)s1` [Example 33, 1-{2-[3-(2-{3-chloro-4-[(1-methylethyl)oxy]phenyl}-1,3-thiazol-5-yl)-5-fluoro-2-(methyloxy)phenyl]ethyl}-3-azetidinecarboxylic acid trifluoroacetate] are less than 1 nM and greater than 3160 nM.
As for `CCc1c(CCN2CC(C(=O)O)C2)cccc1-c1cnc(-c2ccc(OC(C)C)c(C#N)c2)s1` [Example 34, 1-{2-[3-(2-{3-cyano-4-[(1-methylethyl)oxy]phenyl}-1,3-thiazol-5-yl)-2-ethylphenyl]ethyl}-3-azetidinecarboxylic acid trifluoroacetate], the EC50 is less than 1 nM in experiment [1] and greater than 3160 nM in experiment [2].
For `CCc1c(CN2CCC(C(=O)O)CC2)cccc1-c1cnc(-c2ccc(OC(C)C)c(Cl)c2)s1` [Example 36, 1-{[3-(2-{3-chloro-4-[(1-methylethyl)oxy]phenyl}-1,3-thiazol-5-yl)-2-ethylphenyl]methyl}-4-piperidinecarboxylic acid trifluoroacetate], in that order: less than 100 nM and greater than 10000 nM.
For `CCc1c(CCN2CCC(C(=O)O)CC2)cccc1-c1cnc(-c2ccc(OC(C)C)c(C#N)c2)s1` [Example 37, 1-{2-[3-(2-{3-cyano-4-[(1-methylethyl)oxy]phenyl}-1,3-thiazol-5-yl)-2-ethylphenyl]ethyl}-4-piperidinecarboxylic acid trifluoroacetate], in that order: less than 1 nM and 933 nM.
For `CCc1c(CN2CC(C(=O)O)C2)cccc1-c1cnc(-c2ccc(OC(C)C)c(C#N)c2)s1` [Example 38, 1-{[3-(2-{3-cyano-4-[(1-methylethyl)oxy]phenyl}-1,3-thiazol-5-yl)-2-ethylphenyl]methyl}-3-azetidinecarboxylic acid trifluoroacetate], in that order: less than 1 nM and greater than 10000 nM.
For `CCc1c(CN2CC(C(=O)O)C2)cccc1-c1cnc(-c2ccc(OC(C)C)c(Cl)c2)s1` [Example 39, 1-{[3-(2-{3-chloro-4-[(1-methylethyl)oxy]phenyl}-1,3-thiazol-5-yl)-2-ethylphenyl]methyl}-3-azetidinecarboxylic acid trifluoroacetate], the results for the EC50 in experiment [1] and in experiment [2] were less than 1 nM and greater than 10000 nM, respectively.
For `CCc1c(CCN2CC(C(=O)O)C2)cccc1-c1cnc(-c2ccc(OC(C)C)c(Cl)c2)s1` [Example 41, 1-{2-[3-(2-{3-chloro-4-[(1-methylethyl)oxy]phenyl}-1,3-thiazol-5-yl)-2-ethylphenyl]ethyl}-3-azetidinecarboxylic acid trifluoroacetate], in that order: less than 1 nM and greater than 3160 nM.
Turning to `CCc1c(CN2CCC(C(=O)O)CC2)cccc1-c1cnc(-c2ccc(CC(C)C)c(C#N)c2)s1` [Example 42, 1-[(3-{2-[3-cyano-4-(2-methylpropyl)phenyl]-1,3-thiazol-5-yl}-2-ethylphenyl)methyl]-4-piperidinecarboxylic acid trifluoroacetate], the EC50 in experiment [1] is no more than 10 nM; in experiment [2], greater than 10000 nM.
In the same order, the values of `CCc1c(CN2CC(C(=O)O)C2)cccc1-c1cnc(-c2ccc(CC(C)C)c(C#N)c2)s1` [Example 43, 1-[(3-{2-[3-cyano-4-(2-methylpropyl)phenyl]-1,3-thiazol-5-yl}-2-ethylphenyl)methyl]-3-azetidinecarboxylic acid trifluoroacetate] are less than 1 nM and greater than 3160 nM.
For `CCc1c(CN2CCC(C(=O)O)C2)cccc1-c1nnc(-c2ccc(OC(C)C)c(Cl)c2)s1` (stereo not drawn) [Example 44, 1-{[3-(5-{3-chloro-4-[(1-methylethyl)oxy]phenyl}-1,3,4-thiadiazol-2-yl)-2-ethylphenyl]methyl}-3-pyrrolidinecarboxylic acid trifluoroacetate], in that order: no more than 10 nM and greater than 3160 nM.
For the molecule `CCc1c(CN2CCCC(C(=O)O)C2)cccc1-c1nnc(-c2ccc(OC(C)C)c(Cl)c2)s1` (stereo not drawn) [Example 46], the EC50 is less than 100 nM in experiment [1] and greater than 10000 nM in experiment [2].
For `CCc1c(CN2CCC[C@H](C(=O)O)C2)cccc1-c1nnc(-c2ccc(OC(C)C)c(Cl)c2)s1` [Example 47], the EC50 was no more than 10 nM in experiment [1] and greater than 10000 nM in experiment [2].
In the same order, the values of `CCc1c(CN2CCC(C(=O)O)C2)cccc1-c1nnc(-c2ccc(CC(C)C)c(C#N)c2)s1` (stereo not drawn) [Example 48, 1-[(3-{5-[3-cyano-4-(2-methylpropyl)phenyl]-1,3,4-thiadiazol-2-yl}-2-ethylphenyl)methyl]-3-pyrrolidinecarboxylic acid] are less than 1 nM and greater than 3160 nM.
In the same order, the values of `CCc1c(CN2CCCC(C(=O)O)C2)cccc1-c1nnc(-c2ccc(CC(C)C)c(C#N)c2)s1` (stereo not drawn) [Example 50] are no more than 10 nM and greater than 10000 nM.
`CCc1c(CN2CCC[C@H](C(=O)O)C2)cccc1-c1nnc(-c2ccc(CC(C)C)c(C#N)c2)s1` [Example 51]: the values for the EC50 in experiment [1] and in experiment [2] were less than 1 nM and greater than 10000 nM, respectively.
In the same order, the values of `CCc1c(CCN2CCC[C@H]2C(=O)O)cccc1-c1nnc(-c2ccc(OC(C)C)c(Cl)c2)s1` [Example 52] are less than 100 nM and greater than 10000 nM.
For `CCc1c(CCN2C[C@H](O)C[C@H]2C(=O)O)cccc1-c1nnc(-c2ccc(OC(C)C)c(Cl)c2)s1` [Example 55], in that order: no more than 10 nM and greater than 10000 nM.
In the same order, the values of `CCc1c(CCN2CCCC(C(=O)O)C2)cccc1-c1nnc(-c2ccc(OC(C)C)c(Cl)c2)s1` (stereo not drawn) [Example 56] are less than 1 nM and greater than 3160 nM.
As for `CCc1c(CCN2CCC[C@H](C(=O)O)C2)cccc1-c1nnc(-c2ccc(OC(C)C)c(Cl)c2)s1` [Example 57], the EC50 in experiment [1] is less than 1 nM; in experiment [2], greater than 3160 nM.
For `Cc1c(CCN2CCC(C(=O)O)CC2)cccc1-c1nnc(-c2ccc(OC(C)C)c(Cl)c2)s1` [Example 58, 1-{2-[3-(5-{3-chloro-4-[(1-methylethyl)oxy]phenyl}-1,3,4-thiadiazol-2-yl)-2-methylphenyl]ethyl}-4-piperidinecarboxylic acid], in that order: no more than 10 nM and greater than 3160 nM.

(Values after patent US8389508B2 (Glaxo Group Limited, priority 2010, dated 2013).)
